Measurements: US20140135357A1, “DOSE REGIME FOR CAMPTOTHECIN DERIVATIVES” (Taiwan Liposome Company, Ltd., priority 2012, published 2014)

Assay: Phase I clinical trial: pharmacokinetic analysis of TLC388HCl diastereomers and metabolites after IV infusion
[1] = Day 1, dose group 1.5 mg/m^2 TLC388HCl, Mean (SD)
[2] = Day 1, dose group 3.0 mg/m^2 TLC388HCl, Mean (SD)
[3] = Day 1, dose group 6.0 mg/m^2 TLC388HCl, Mean (SD)
[4] = Day 1, dose group 9.0 mg/m^2 TLC388HCl, Mean (SD)
[5] = Day 1, dose group 20.0 mg/m^2 TLC388HCl, Mean (SD)
[6] = Day 1, dose group 30.0 mg/m^2 TLC388HCl, Mean (SD)
[7] = Day 1, dose group 35.0 mg/m^2 TLC388HCl, Mean (SD)
[8] = Day 1, dose group 40.0 mg/m^2 TLC388HCl, Mean (SD)
[9] = Day 1, dose group 50.0 mg/m^2 TLC388HCl, Mean (SD)
[10] = Day 1, dose group 60.0 mg/m^2 TLC388HCl, Mean (SD)
[11] = Day 8, dose group 1.5 mg/m^2 TLC388HCl, Mean (SD)
[12] = Day 8, dose group 3.0 mg/m^2 TLC388HCl, Mean (SD)
[13] = Day 8, dose group 6.0 mg/m^2 TLC388HCl, Mean (SD)
[14] = Day 8, dose group 9.0 mg/m^2 TLC388HCl, Mean (SD)
[15] = Day 8, dose group 20.0 mg/m^2 TLC388HCl, Mean (SD)
[16] = Day 8, dose group 30.0 mg/m^2 TLC388HCl, Mean (SD)
[17] = Day 8, dose group 35.0 mg/m^2 TLC388HCl, Mean (SD)
[18] = Day 8, dose group 40.0 mg/m^2 TLC388HCl, Mean (SD)
[19] = Day 8, dose group 50.0 mg/m^2 TLC388HCl, Mean (SD)
[20] = Day 8, dose group 60.0 mg/m^2 TLC388HCl, Mean (SD)
[21] = patients treated with 60 mg/m^2 of TLC388HCl (N = 6)

Procedure: A non-randomized phase I clinical trial was conducted at 4 institutions in the US and Taiwan.
Patients were included in this trial if they are over the age of 18, with advanced cancer and the ECOG performance status is 0 or 1. […] Patients were excluded from the study if they have previously received more than 3 regimens of chemotherapy, or if they have received chemotherapy or radiotherapy within 4 weeks of the trial recruitment.
Eligible patients were given the pharmaceutical composition of the present invention, comprising a mixture of TLC388HCl and mPEG2000-DSPE in a molar ratio of 1:0.7 to 1:0.9 (known as Lipotecan®). […] The pharmaceutical composition was administered as a 30-min IV infusion, on days 1, 8, and 15 of a 28-day cycle (i.e. 3 IV infusions per 28-day cycle).
Serum samples were collected from the patients for pharmacokinetic analysis on day 1, day 8 and day 15 of Cycles 1 and 2, at the following times:
Post IV infusion: (Day 1 and 8 of Cycle 1): 33 min; 40 min; 50 min; 1 h; 1 h 30 min; 2 h; 4 h and 8 h. Post IV infusion (Day 15 of Cycle 1 and Day 1, 8, and 15 of Cycle 2): 4 h. Patients were assessed every 8 weeks, after 2 cycles of treatments.
During the 2-cycle study period, the patients were examined regularly for the following outcomes: • Side effect/DLT; • The pK profiles of the (S,S) and (S,R) diastereomers of TLC388HCl, its 3 metabolites (TLC-U1, TLC-U2 and Topotecan) on day 1 and day 8 of the treatment cycle; and • Anti-cancer efficacy.

SMILES: CCC1(OC(=O)C(C)ON=C2c3cc([N+](=O)[O-])cc([N+](=O)[O-])c3-c3c2cc([N+](=O)[O-])cc3[N+](=O)[O-])C(=O)OCc2c1cc1n(c2=O)Cc2cc3c(CN(C)C)c(O)ccc3nc2-1.Cl (stereo not drawn) [S,S TLC388HCl]
- difference between PK profiles on Day 1 and Day 8 (Cycle 1): no significant difference
- AUC0-t [1]: 2.190 ng·h/mL
- Cmax [1]: 4.492 ng/mL
- Tmax [1]: 0.606 (0.106) hr
- t1/2 [1]: 2.792 (3.856) hr
- AUC0-t [2]: 6.136 ng·h/mL
- Cmax [2]: 3.857 ng/mL
- Tmax [2]: 0.933 (0.936) hr
- AUC0-t [3]: 1.866 ng·h/mL
- Cmax [3]: 5.763 ng/mL
- Tmax [3]: 0.467 (0.209) hr
- AUC0-t [4]: 1.141 ng·h/mL
- Cmax [4]: 2.985 ng/mL
- Tmax [4]: 0.429 (0.212) hr
- t1/2 [4]: 0.074 (0.033) hr
- AUC0-t [5]: 14.699 ng·h/mL
- Cmax [5]: 51.193 ng/mL
- Tmax [5]: 0.250 (0.000) hr
- t1/2 [5]: 0.432 (0.260) hr
- AUC0-t [6]: 5.227 ng·h/mL
- Cmax [6]: 18.623 ng/mL
- Tmax [6]: 0.454 (0.276) hr
- t1/2 [6]: 0.160 (0.034) hr
- AUC0-t [7]: 212.19 ng·h/mL
- Cmax [7]: 417.03 ng/mL
- Tmax [7]: 0.679 (0.116) hr
- t1/2 [7]: 2.221 (0.789) hr
- AUC0-t [8]: 17.287 ng·h/mL
- Cmax [8]: 47.220 ng/mL
- Tmax [8]: 0.415 (0.152) hr
- t1/2 [8]: 0.457 (0.812) hr
- AUC0-t [9]: 23.967 ng·h/mL
- Cmax [9]: 76.840 ng/mL
- Tmax [9]: 0.403 (0.143) hr
- t1/2 [9]: 0.218 (0.075) hr
- AUC0-t [10]: 18.196 ng·h/mL
- Cmax [10]: 103.16 ng/mL
- Tmax [10]: 0.357 (0.148) hr
- t1/2 [10]: 0.546 (0.353) hr
- AUC0-t [11]: 0.608 ng·h/mL
- Cmax [11]: 1.297 ng/mL
- Tmax [11]: 0.489 (0.215) hr
- t1/2 [11]: 0.093 h
- AUC0-t [12]: 0.852 ng·h/mL
- Cmax [12]: 2.902 ng/mL
- Tmax [12]: 0.350 (0.173) hr
- AUC0-t [13]: 3.152 ng·h/mL
- Cmax [13]: 12.160 ng/mL
- Tmax [13]: 0.467 (0.209) hr
- t1/2 [13]: 0.045 h
- AUC0-t [14]: 7.000 ng·h/mL
- Cmax [14]: 4.776 ng/mL
- Tmax [14]: 2.408 (3.729) hr
- t1/2 [14]: 0.195 h
- AUC0-t [15]: 7.369 ng·h/mL
- Cmax [15]: 24.533 ng/mL
- Tmax [15]: 0.328 (0.135) hr
- t1/2 [15]: 0.509 (0.731) hr
- AUC0-t [16]: 28.454 ng·h/mL
- Cmax [16]: 58.903 ng/mL
- Tmax [16]: 0.587 (0.167) hr
- t1/2 [16]: 0.114 (0.061) hr
- AUC0-t [17]: 208.58 ng·h/mL
- Cmax [17]: 616.50 ng/mL
- Tmax [17]: 0.621 (0.141) hr
- t1/2 [17]: 4.009 (1.684) hr
- AUC0-t [18]: 58.170 ng·h/mL
- Cmax [18]: 127.39 ng/mL
- Tmax [18]: 0.303 (0.113) hr
- t1/2 [18]: 0.429 (0.687) hr
- AUC0-t [19]: 58.594 ng·h/mL
- Cmax [19]: 150.12 ng/mL
- Tmax [19]: 0.297 (0.104) hr
- t1/2 [19]: 0.817 (1.200) hr
- AUC0-t [20]: 24.500 ng·h/mL
- Cmax [20]: 87.780 ng/mL
- Tmax [20]: 0.403 (0.143) hr
- t1/2 [20]: 0.971 (0.667) hr
- Cmax and AUC compared with S,R-TLC388HCl (at all dose levels): higher than those of S,R-TLC388HCl
- Dose-normalized AUClast [21]: 1.22 ± 2.87 nM*h/(mg/m^2)
- Dose-normalized Cmax [21]: 2.60 ± 6.02 nM/(mg/m^2)
- Tmax [21]: 0.47 ± 0.3 h
- t1/2 [21]: 0.75 ± 1.18 h
- half-life (plasma, after IV administration of TLC388HCl composition): a few minutes
